Data: patent US10683216B2, “Selective adsorbent fabric for water purification” (Chemica Technologies, Inc., priority 2013, dated 2020)

Legend:
[1] = Kinetics of adsorption of organic toxins to ACF-H in Standard Synthetic Test Water; details: STW, pH 6.9~7.0; for ACF-H 50% (estimated time to achieve designated toxin removal): 50% removal; for ACF-H >95% (estimated time to achieve designated toxin removal): >95% removal
[2] = Kinetics of adsorption of organic toxins to ACF-OH in Standard Synthetic Test Water; details: STW, pH 6.9~7.0; for ACF-OH 50% (estimated time to achieve designated toxin removal): 50% removal; for ACF-OH removal reached, in brackets in the >95% column: >95% not reached; for ACF-OH >95% (estimated time to achieve designated toxin removal): >95% removal
[3] = Kinetics of adsorption of organic toxins to ACF-SBX in Standard Synthetic Test Water; details: STW, pH 6.9~7.0; for ACF-SBX 50% (estimated time to achieve designated toxin removal): 50% removal; for ACF-SBX >95% (estimated time to achieve designated toxin removal): >95% removal
[4] = Log P (logarithm of measured partition coefficient)

Row | Compound | ACF-H 50% (estimated time to achieve designated toxin removal) [1] | ACF-H >95% (estimated time to achieve designated toxin removal) [1] | ACF-OH 50% (estimated time to achieve designated toxin removal) [2] | ACF-OH removal reached, in brackets in the >95% column [2] | ACF-SBX 50% (estimated time to achieve designated toxin removal) [3] | ACF-SBX >95% (estimated time to achieve designated toxin removal) [3] | logP (physchem) | ACF-OH >95% (estimated time to achieve designated toxin removal) [2] | logP [4] | ACF-H removal reached, in brackets in the >95% column ([1]; >95% not reached) | Log P ([4]; logarithm of measured partition coefficient)
1 | Oc1ccc(Cl)cc1Cl [2,4-dichlorophenol] | 1.5 min | 30.0 min | 2.6 min | (92%) | 2.3 min | 30.0 min | 3.17 | – | – | – | –
2 | O=[N+]([O-])c1ccc(O)cc1 [4-nitrophenol] | 0.8 min | 20.0 min | 5.0 min | – | 1.5 min | 20.0 min | – | 60.0 min | – | – | –
3 | CCCCCCCCCc1ccc(O)cc1 [4-nonylphenol] | 2.0 min | 30.0 min | 57.0 min | (73%) | 5.0 min | 45.0 min | 5.76 | – | – | – | –
4 | C[C@]12CC[C@@H]3c4ccc(O)cc4CC[C@H]3[C@@H]1CC[C@@H]2O [17β-estradiol] | 0.5 min | 10.0 min | 0.5 min | – | 0.5 min | 10.0 min | – | 50.0 min | – | – | –
5 | CCCCC(CC)COC(=O)c1ccccc1C(=O)OCC(CC)CCCC (stereo not shown) [DEHP, bis(2-ethylhexyl)phthalate] | 20.0 min | 80.0 min | 43.3 min | (92%) | 3.8 min | 20.0 min | – | – | 7.8 | – | –
6 | CCN(CC)N=O [NDEA, N-nitrosodiethylamine] | 3.8 min | – | 30.0 min | (59%) | 4.6 min | 60.0 min | 0.48 | – | – | (93%) | –
7 | c1ccc2cc3ccccc3cc2c1 [anthracene] | ^♦0.5 min | 53.0 min | 0.4 min | – | 0.4 min | 12.5 min | – | 30.0 min | – | – | –
8 | CCNc1nc(Cl)nc(NC(C)C)n1 [atrazine] | 2.0 min | 20.0 min | 6.0 min | (90%) | 1.6 min | 10.0 min | 2.61 | – | – | – | –
9 | CC(C)(c1ccc(O)cc1)c1ccc(O)cc1 [bisphenol A] | 5.0 min | 30.0 min | 45.0 min | (70%) | 4.0 min | 30.0 min | 3.32 | – | – | – | –
10 | Cc1ccc(S(=O)(=O)[N-]Cl)cc1.[Na+] [chloramine-T] | 3.3 min | 25.0 min | 50.0 min | (82%) | 3.3 min | 25.0 min | – | – | – | – | –
11 | Clc1ccccc1 [chlorobenzene] | 0.3 min | 2.0 min | 0.3 min | – | 0.3 min | 2.0 min | – | 2.0 min | – | – | –
12 | Brc1c(Br)c(Br)c(Oc2c(Br)c(Br)c(Br)c(Br)c2Br)c(Br)c1Br [deca-BDE, decabromodiphenyl ether] | 0.4 min | – | – | – | 0.5 min | – | 9.97 | – | – | – | –
13 | CCOC(=O)c1ccccc1C(=O)OCC [diethyl phthalate] | 5.0 min | 50.0 min | 60.0 min | (69%) | 3.5 min | 25.0 min | 2.42 | – | – | – | –
14 | CN(C)C(=O)Nc1ccc(Cl)c(Cl)c1 [diuron] | 3.0 min | 15.0 min | 30.0 min | – | 3.0 min | 15.0 min | – | 55.0 min | – | – | –
15 | CCc1ccccc1 [ethylbenzene] | 0.3 min | – | 0.3 min | – | 0.3 min | – | – | 0.5 min | – | – | –
16 | Clc1ccccc1Cl [o-dichlorobenzene] | 1.5 min | 3.0 min | 1.5 min | – | 0.8 min | 3.0 min | 3.38 | 3.0 min | – | – | –
17 | Cc1ccc(O)cc1 [p-cresol] | – | – | – | – | – | – | 1.97 | – | – | – | –
18 | Clc1ccc(Cl)cc1 [p-dichlorobenzene] | 1.0 min | 2.0 min | 1.0 min | – | 1.0 min | 2.0 min | – | 2.0 min | – | – | 3.44
19 | Oc1cc(Cl)ccc1Oc1ccc(Cl)cc1Cl [triclosan] | 2.5 min | 55.0 min | 26.0 min | (91%) | 1.7 min | 46.7 min | – | – | 4.53 | – | –
20 | O=c1[nH]c(=O)c2[nH]c(=O)[nH]c2[nH]1 [uric acid] | 3.0 min | 30.0 min | 15.0 min | – | 3.0 min | 30.0 min | – | 60.0 min | -2.92 | – | –
